Assay results: patent publication US10947574B2, “Method for producing fermented carotenoid using carotenoid-producing bacteria obtained by using cobalt-containing culturing medium” (ENEOS CORPORATION, priority 2015, dated 2021)

System: Paracoccus carotinifaciens strain E-396 (FERM BP-4283)
Test: Example 3: cobalt concentration series, growth (OD610) and carotenoid levels (HPLC)
Assay type: cell-based
Description: In the following examples, carotenoids were quantified by high performance liquid chromatography (HPLC) as follows.
Two columns of Inertsil SIL-100A, 5 μm (ϕ4.6 mm×250 mm) (GL Sciences Inc., Japan) were connected together for use as a column. For elution, a mixed solution of n-hexane, tetrahydrofuran and methanol (40:20:1) serving as a mobile phase was passed through the column at a flow rate of 1.0 mL per minute at a constant temperature around room temperature. For measurement, samples were each dissolved in tetrahydrofuran and diluted 100-fold with the mobile phase, and 20 μL aliquots of the resulting dilutions were injected into the column. The column eluates were detected at a wavelength of 470 nm. As a standard for quantification, astaxanthin (SIGMA, Cat. No. A9335) was used. The astaxanthin concentration of the standard solution was determined using the following equation after measuring the absorbance (A) of the standard solution at 477 nm and the area percentage % (B) of the astaxanthin peak in HPLC analysis under the above conditions.
Subsequently, a medium of the following composition (glucose 30 g/L, filtered corn steep liquor 30 g/L, ammonium sulfate 1.5 g/L, potassium dihydrogen phosphate 1.5 g/L, disodium hydrogen phosphate dodecahydrate 3.8 g/L, calcium chloride dihydrate 5.0 g/L, magnesium sulfate heptahydrate 0.7 g/L, iron sulfate heptahydrate 1.0 g/L, silicon-based defoaming agent 0.2 g/L) was dispensed in 7.2 ml volumes into cotton-plugged test tubes having an inner diameter of 18 mm to prepare 12 test tubes containing a test tube medium for production. The ingredients used to prepare the test tube medium for production were obtained from lots where microbial cells had been confirmed not to grow well.
The resulting culture solution was then inoculated in 0.05 ml volumes into the 12 types of test tube media for production having different cobalt concentrations, and cultured under shaking at 28° C. for 4 days at 300 spm.
The cobalt concentration in the cobalt chloride-free medium and the concentration of cobalt chloride added to each medium were summed up to calculate the concentration of cobalt present in each medium (Table 6).
After being cultured for 4 days, the culture solutions were each measured for microbial cell growth by OD610 and measure for carotenoid levels by HPLC. […] Moreover, FIGS. 2 to 4 show graphs plotted in enlarged scale for the high and low concentration ranges of cobalt present in the medium.

[1] = cobalt added 0.00042 μmol/L, present 0.0024 μmol/L
[2] = cobalt added 0.0042 μmol/L, present 0.0062 μmol/L
[3] = cobalt added 0.0084 μmol/L, present 0.0104 μmol/L
[4] = cobalt added 0.021 μmol/L, present 0.023 μmol/L
[5] = cobalt added 0.042 μmol/L, present 0.044 μmol/L
[6] = cobalt added 0.42 μmol/L, present 0.42 μmol/L
[7] = cobalt added 1.1 μmol/L, present 1.05 μmol/L
[8] = cobalt added 4.2 μmol/L, present 4.2 μmol/L
[9] = cobalt added 8.4 μmol/L, present 8.4 μmol/L
[10] = cobalt added 21 μmol/L, present 21 μmol/L
[11] = cobalt added 42 μmol/L, present 42 μmol/L

O.O.O.O.O.O.[Cl-].[Cl-].[Co+2] [Cobalt chloride hexahydrate]
Carotenoid: 3-Hydroxyechinenone [1]: 0.1 mg/L
Carotenoid: Adonirubin [1]: 0.0 mg/L
Carotenoid: Adonixanthin [1]: 3.0 mg/L
Carotenoid: Astaxanthin [1]: 0.8 mg/L
Carotenoid: Asteroidenone [1]: 0.1 mg/L
Carotenoid: Canthaxanthin [1]: 0.0 mg/L
Carotenoid: Echinenone [1]: 0.0 mg/L
Carotenoid: β-Carotene [1]: 0.2 mg/L
OD610 [1]: 5
Total carotenoid [1]: 4.1 mg/L
Carotenoid: 3-Hydroxyechinenone [2]: 0.3 mg/L
Carotenoid: Adonirubin [2]: 0.4 mg/L
Carotenoid: Adonixanthin [2]: 7.0 mg/L
Carotenoid: Astaxanthin [2]: 3.6 mg/L
Carotenoid: Asteroidenone [2]: 0.3 mg/L
Carotenoid: Canthaxanthin [2]: 0.1 mg/L
Carotenoid: Echinenone [2]: 0.2 mg/L
Carotenoid: β-Carotene [2]: 1.0 mg/L
OD610 [2]: 9
Total carotenoid [2]: 12.9 mg/L
Carotenoid: 3-Hydroxyechinenone [3]: 0.4 mg/L
Carotenoid: Adonirubin [3]: 1.3 mg/L
Carotenoid: Adonixanthin [3]: 4.0 mg/L
Carotenoid: Astaxanthin [3]: 11.7 mg/L
Carotenoid: Asteroidenone [3]: 0.4 mg/L
Carotenoid: Canthaxanthin [3]: 0.9 mg/L
Carotenoid: Echinenone [3]: 0.4 mg/L
Carotenoid: β-Carotene [3]: 1.1 mg/L
OD610 [3]: 18
Total carotenoid [3]: 20.2 mg/L
Carotenoid: 3-Hydroxyechinenone [4]: 0.5 mg/L
Carotenoid: Adonirubin [4]: 8.3 mg/L
Carotenoid: Adonixanthin [4]: 3.1 mg/L
Carotenoid: Astaxanthin [4]: 26.5 mg/L
Carotenoid: Asteroidenone [4]: 0.4 mg/L
Carotenoid: Canthaxanthin [4]: 3.4 mg/L
Carotenoid: Echinenone [4]: 1.4 mg/L
Carotenoid: β-Carotene [4]: 1.0 mg/L
OD610 [4]: 34
Total carotenoid [4]: 44.5 mg/L
Carotenoid: 3-Hydroxyechinenone [5]: 0.5 mg/L
Carotenoid: Adonirubin [5]: 6.4 mg/L
Carotenoid: Adonixanthin [5]: 3.5 mg/L
Carotenoid: Astaxanthin [5]: 25.5 mg/L
Carotenoid: Asteroidenone [5]: 0.4 mg/L
Carotenoid: Canthaxanthin [5]: 2.6 mg/L
Carotenoid: Echinenone [5]: 1.2 mg/L
Carotenoid: β-Carotene [5]: 0.8 mg/L
OD610 [5]: 35
Total carotenoid [5]: 40.9 mg/L
Carotenoid: 3-Hydroxyechinenone [6]: 0.7 mg/L
Carotenoid: Adonirubin [6]: 5.8 mg/L
Carotenoid: Adonixanthin [6]: 3.2 mg/L
Carotenoid: Astaxanthin [6]: 28.6 mg/L
Carotenoid: Asteroidenone [6]: 0.5 mg/L
Carotenoid: Canthaxanthin [6]: 2.3 mg/L
Carotenoid: Echinenone [6]: 1.2 mg/L
Carotenoid: β-Carotene [6]: 0.8 mg/L
OD610 [6]: 37
Total carotenoid [6]: 42.9 mg/L
Carotenoid: 3-Hydroxyechinenone [7]: 0.4 mg/L
Carotenoid: Adonirubin [7]: 7.0 mg/L
Carotenoid: Adonixanthin [7]: 1.7 mg/L
Carotenoid: Astaxanthin [7]: 26.8 mg/L
Carotenoid: Asteroidenone [7]: 0.3 mg/L
Carotenoid: Canthaxanthin [7]: 3.1 mg/L
Carotenoid: Echinenone [7]: 1.2 mg/L
Carotenoid: β-Carotene [7]: 0.8 mg/L
OD610 [7]: 37
Total carotenoid [7]: 41.3 mg/L
Carotenoid: 3-Hydroxyechinenone [8]: 0.2 mg/L
Carotenoid: Adonirubin [8]: 14.3 mg/L
Carotenoid: Adonixanthin [8]: 0.7 mg/L
Carotenoid: Astaxanthin [8]: 14.2 mg/L
Carotenoid: Asteroidenone [8]: 0.1 mg/L
Carotenoid: Canthaxanthin [8]: 8.1 mg/L
Carotenoid: Echinenone [8]: 1.4 mg/L
Carotenoid: β-Carotene [8]: 0.7 mg/L
OD610 [8]: 33
Total carotenoid [8]: 39.7 mg/L
Carotenoid: 3-Hydroxyechinenone [9]: 0.1 mg/L
Carotenoid: Adonirubin [9]: 11.9 mg/L
Carotenoid: Adonixanthin [9]: 0.3 mg/L
Carotenoid: Astaxanthin [9]: 9.3 mg/L
Carotenoid: Asteroidenone [9]: 0.1 mg/L
Carotenoid: Canthaxanthin [9]: 9.9 mg/L
Carotenoid: Echinenone [9]: 2.0 mg/L
Carotenoid: β-Carotene [9]: 0.8 mg/L
OD610 [9]: 31
Total carotenoid [9]: 34.4 mg/L
Carotenoid: 3-Hydroxyechinenone [10]: 0.1 mg/L
Carotenoid: Adonirubin [10]: 6.5 mg/L
Carotenoid: Adonixanthin [10]: 0.2 mg/L
Carotenoid: Astaxanthin [10]: 1.9 mg/L
Carotenoid: Asteroidenone [10]: 0.1 mg/L
Carotenoid: Canthaxanthin [10]: 9.4 mg/L
Carotenoid: Echinenone [10]: 2.8 mg/L
Carotenoid: β-Carotene [10]: 1.2 mg/L
OD610 [10]: 23
Total carotenoid [10]: 22.2 mg/L
Carotenoid: 3-Hydroxyechinenone [11]: 0.0 mg/L
Carotenoid: Adonirubin [11]: 0.2 mg/L
Carotenoid: Adonixanthin [11]: 0.0 mg/L
Carotenoid: Astaxanthin [11]: 0.1 mg/L
Carotenoid: Asteroidenone [11]: 0.0 mg/L
Carotenoid: Canthaxanthin [11]: 0.1 mg/L
Carotenoid: Echinenone [11]: 0.0 mg/L
Carotenoid: β-Carotene [11]: 0.0 mg/L
OD610 [11]: 3
Total carotenoid [11]: 0.4 mg/L
